US7625917B2, “Thiolesters and uses thereof” (priority 1998, dated 2009)
Where two headings read alike, the source gives them in different places.

Legend:
[1] = test system: CEM-SS cells; experiment: cells; type: cell-based
Method: Agents Chemother. […] Briefly, cells are infected with HIV-1 RF (or other virus to be tested) in the presence of various dilutions of test compounds (thiolesters and controls). The cultures are incubated for seven days. […] The cell death is measured by XTT dye reduction. XTT is a soluble tetrazolium dye that measures mitochondrial energy output, similar to MTT. Positive controls using dextran sulfate (an attachment inhibitor) or 3′-Azido-2′-3′-dideoxythymidine, AZT (a reverse transcriptase inhibitor) are added to each assay. Individual assays are done in duplicate using a sister plate method.

[2] = test system: HIV-1RF; experiment: XTT cytoprotection assay (antiviral activity); type: cell-based; details: for EC50: read-out: EC50; for loss of antiviral activity of BITA vs disulfide form, fold decrease: from Table 2
Excerpt: One exemplary means to determine antiviral activity is with CEM-SS cells and virus (e.g., HIV-1RF) (MOI=0.01) using the XTT (2,3-bis[2-methoxy-4-nitro-5-sulfophenyl]-5-[(phenylamino)carbonyl]-2H-tetrazolium hydroxide) cytoprotection assay, as described by Rice (1993) PNAS 90:9721-9724, and Rice (1997) Antimicrob. Agents Chemother. 41:419-426. Briefly, cells are infected with HIV-1 RF (or other virus to be tested) in the presence of various dilutions of test compounds (thiolesters and controls). The cultures are incubated for seven days. During this time control cultures without protective compounds (i.e., compounds with anti-viral activity) replicate virus, induce syncytia, and result in about 90% cell death. The cell death is measured by XTT dye reduction. XTT is a soluble tetrazolium dye that measures mitochondrial energy output, similar to MTT. Positive controls using dextran sulfate (an attachment inhibitor) or 3′-Azido-2′-3′-dideoxythymidine, AZT (a reverse transcriptase inhibitor) are added to each assay. Individual assays are done in duplicate using a sister plate method.
Effective antiviral concentrations providing 50% cytoprotection (EC50), and cellular growth inhibitory concentrations causing 50% cytotoxicity (IC50) are calculated.

[3] = biological target: T1, recombinant HIV-1 NCp7 protein (Human immunodeficiency virus type 1 group M subtype B, UniProt P03347); experiment: Trp37 zinc finger fluorescence (zinc ejection) assay; type: biochemical
T1 construct: recombinant HIV-1 NCp7 protein
Method: Zinc finger reactivity was measured using a Zn specific fluorochrome, TSQ, N-(6-methoxy-8-quinolyl)-p-toluenesulfonamide, assay or a Trp37 zinc finger fluorescence assay. Fluorescent measurements of the Trp37 residue in the C-terminal finger of recombinant HIV-1 NCp7 protein were performed as described by Rice (1995) Science 270:1194-1197; Rice (1997) Antimicrob. Agents Chemother. 41:419-426. Measurement of Zn ejection from both fingers was measured using the Zn-selective fluorchrome probe TSQ (Molecular Probes, Eugene Oreg.) as described by Rice (1996) J. Med. Chem 39:3606-3616. […] Briefly, 50 nM NCp7 was treated with test compounds for 1 hour at RT in […] buffer containing 10% glycerol and 50 mM Tris-HCl (pH 7.5). Labeled oligomer (0.1 picomole, end labeled [^32P] was added in an equal volume of buffer containing 10% glycerol, 50 mM Tris-HCl (pH 7.5), 400 mM KCl and 40 mM MgCl2. The reaction was continued for 15 min at room temperature, and a total of […] (or ¼ of the total reaction volume) was separated on nondenaturing 4.5% polyacrylamide gels in 0.5× Tris-Borate electrophoresis buffer. NCp7-oligomer complexes were visualized by autoradiography.
Changes in the intrinsic fluorescence of aromatic protein moieties are commonly used to monitor a reaction which involves a change in protein conformation. In the present invention, fluorescence can be used to monitor the loss of metal ion from a zinc finger, e.g., the loss of zinc from a CCHC retroviral zinc finger protein, after contact with a thiolester of the invention. The intrinsic fluorescence of Trp37 in the second zinc finger of HIV-1 NC protein has been used to monitor nucleic acid binding and conformation of the zinc finger complex (see, Summers (1992) supra).
Zinc ejection is measured by the ability of compounds to chemically attack the cysteines in purified NCp7 protein resulting in a loss of fluorescence due to the. movement of the tryptophan 37 residue […] position on the protein. Zinc ejection is measured and expressed as either percent decrease in total fluorescence or decrease in relative fluorescence units per min during a 30 min assay (RFU/min). A thiolester is considered within the scope of the invention if any amount of zinc ejection is detected.

[4] = Table 1, 50% cytotoxicity, read-out: IC50
[5] = Table 3, 50% cytotoxicity, read-out: IC50
[6] = Table 3, average decrease in relative fluorescence
[7] = Table 2, 50% cytotoxicity, read-out: IC50
[8] = Table 4, 50% cytotoxicity, read-out: IC50

| EC50 ([2]; Table 1) | SMILES | IC50 [1, 4] | other results |
| --- | --- | --- | --- |
| 4.2 µM | COc1ccc(NS(=O)(=O)c2ccc(NC(=O)c3ccccc3SSc3ccccc3C(=O)Nc3ccc(S(=O)(=O)Nc4ccc(OC)nn4)cc3)cc2)nn1 [Compound 12 D] | 53.8 µM |  |
| 17.8 µM | COc1cnc(NS(=O)(=O)c2ccc(-n3sc4ccccc4c3=O)cc2)nc1 [Compound 8 BITA] | 57.6 µM |  |
| 6.9 µM | Cc1cc(C)nc(NS(=O)(=O)c2ccc(-n3sc4ccccc4c3=O)cc2)n1 [Compound 9 BITA] | 17.1 µM |  |
| 2.1 µM | COc1cc(NS(=O)(=O)c2ccc(NC(=O)c3ccccc3SSc3ccccc3C(=O)Nc3ccc(S(=O)(=O)Nc4cc(OC)nc(OC)n4)cc3)cc2)nc(OC)n1 [Compound 6 D] | 52.5 µM |  |
| 9.3 µM | O=C(NS(=O)(=O)c1ccc(-n2sc3ccccc3c2=O)cc1)c1ccccc1 [Compound 3 BITA] | 49.5 µM |  |
| 7.6 µM | COc1cc(NS(=O)(=O)c2ccc(-n3sc4ccccc4c3=O)cc2)nc(OC)n1 [Compound 6 BITA] | 56.6 µM |  |
| 2.1 µM | COc1cnc(NS(=O)(=O)c2ccc(NC(=O)c3ccccc3SSc3ccccc3C(=O)Nc3ccc(S(=O)(=O)Nc4ncc(OC)cn4)cc3)cc2)nc1 [Compound 8 D] | 55.5 µM |  |
| 2.3 µM | NS(=O)(=O)c1ccc(NS(=O)(=O)c2ccc(NC(=O)c3ccccc3SSc3ccccc3C(=O)Nc3ccc(S(=O)(=O)Nc4ccc(S(N)(=O)=O)cc4)cc3)cc2)cc1 [Compound 22 D] |  | IC50 ([1]; read-out: toxicity / IC50): 43 µM |
| 6.5 µM | O=c1c2ccccc2sn1-c1ccc(S(=O)(=O)Nc2ncccn2)cc1 [Compound 5 BITA] | 50.8 µM |  |
| 9.2 µM | O=c1c2ccccc2sn1-c1ccc(S(=O)(=O)Nc2cnc3ccccc3n2)cc1 [Compound 17 BITA] | 54.7 µM |  |
| 2 µM | O=C(Nc1ccc(S(=O)(=O)Nc2ncccn2)cc1)c1ccccc1SSc1ccccc1C(=O)Nc1ccc(S(=O)(=O)Nc2ncccn2)cc1 [Compound 5 D] | 46.4 µM |  |
| 0.72 µM | O=C(Nc1ccc(S(=O)(=O)Nc2cnc3ccccc3n2)cc1)c1ccccc1SSc1ccccc1C(=O)Nc1ccc(S(=O)(=O)Nc2cnc3ccccc3n2)cc1 [Compound 17 D] | 22.2 µM |  |

Second part, the compound before the results:

| SMILES | EC50 ([2]; Table 1) | IC50 [1, 4] | other results |
| --- | --- | --- | --- |
| O=C(NS(=O)(=O)c1ccc(NC(=O)c2ccccc2SSc2ccccc2C(=O)Nc2ccc(S(=O)(=O)NC(=O)c3ccccc3)cc2)cc1)c1ccccc1 [Compound 3 D] | 3.8 µM | 54.1 µM |  |
| O=C(CCCCBr)Sc1ccccc1C(=O)Nc1ccc(S(=O)(=O)c2ccc(NS(=O)(=O)Cc3ccccc3[N+](=O)[O-])cc2)cc1 [Compound 49] |  |  | IC50 ([1]; Table 6, 50% cytotoxicity, read-out: IC50): > 316 µM; Zinc Finger Reactivity RFU/min ([3]; Table 6, average decrease in relative fluorescence units over 30 min): 1.9 RFU/min |
| O=c1c2ccccc2sn1-c1ccc(S(=O)(=O)Nc2ccc(Cl)nn2)cc1 [Compound 4 BITA] | 7.1 µM | 19.2 µM |  |
| O=c1c2ccccc2sn1-c1ccc(S(=O)(=O)c2ccc([N+](=O)[O-])cc2)cc1 [Compound 31 BITA] |  |  | IC50 [1, 5]: > 316 µM; antiviral activity (in words) [2]: without antiviral activity; Zinc Finger Reactivity RFU/min [3, 6]: 4.1 RFU/min |
| CC(=O)Nc1ccc(S(=O)(=O)Nc2ccc(S(=O)(=O)c3ccc(-n4sc5ccccc5c4=O)cc3)cc2)cc1 [Compound 28 BITA] |  |  | IC50 [1, 5]: 188 µM; EC50 ([2]; Table 3): 9.6 µM; Zinc Finger Reactivity RFU/min [3, 6]: 7.9 RFU/min |
| CC(=O)NS(=O)(=O)c1ccc(NC(=O)c2ccccc2SSc2ccccc2C(=O)Nc2ccc(S(=O)(=O)NC(C)=O)cc2)cc1 [Compound 2 D, N,N′-(2,2′-dithiodibenzoyl)-bis-sulfacetamide] | 1.5 µM | > 200 µM |  |
| O=C(Nc1ccc(S(=O)(=O)Nc2ccc(Cl)nn2)cc1)c1ccccc1SSc1ccccc1C(=O)Nc1ccc(S(=O)(=O)Nc2ccc(Cl)nn2)cc1 [Compound 4 D] | 2.9 µM | 18.3 µM |  |
| Cc1cc(NS(=O)(=O)c2ccc(NC(=O)c3ccccc3SSc3ccccc3C(=O)Nc3ccc(S(=O)(=O)Nc4cc(C)nc(C)n4)cc3)cc2)nc(C)n1 [Compound 19 D] | 1.9 µM | 18.2 µM |  |
| CC(=O)NS(=O)(=O)c1ccc(-n2sc3ccccc3c2=O)cc1 [Compound 2 BITA, N-[4-(3-oxo-3H-benz[d]isothiazol-2-yl)phenylsulfonyl] acetamide] |  |  | IC50 ([1]; Homo sapiens, CEM-SS, Table 1, 50% cytotoxicity, read-out: IC50): 34 µM; EC50 ([2]; Human immunodeficiency virus 1, Table 1): 12.6 µM |
| Cc1noc(NS(=O)(=O)c2ccc(-n3sc4ccccc4c3=O)cc2)c1C [Compound 20 BITA] | 12.8 µM | 39 µM |  |
| Cc1cc(NS(=O)(=O)c2ccc(-n3sc4ccccc4c3=O)cc2)nc(C)n1 [Compound 19 BITA] | 6.5 µM | 39.7 µM |  |
| NS(=O)(=O)c1ccc(CCn2sc3ccccc3c2=O)cc1 [Compound 24 BITA] |  |  | IC50 [1, 7]: 45.5 µM; EC50 ([2]; Table 2): 2 µM; loss of antiviral activity of BITA vs disulfide form, fold decrease [2]: 5 fold |
| Cc1cc(C)nc(NS(=O)(=O)c2ccc(NC(=O)c3ccccc3SSc3ccccc3C(=O)Nc3ccc(S(=O)(=O)Nc4nc(C)cc(C)n4)cc3)cc2)n1 [Compound 9 D] | 1.6 µM | 32.2 µM |  |
| NS(=O)(=O)c1ccc(NS(=O)(=O)c2ccc(-n3sc4ccccc4c3=O)cc2)cc1 [Compound 22 BITA] | 6.2 µM | 18.1 µM |  |
| COc1ccc(NS(=O)(=O)c2ccc(-n3sc4ccccc4c3=O)cc2)nn1 [Compound 12 BITA] | 22.6 µM | 55.3 µM |  |
| Nc1cccc(S(=O)(=O)c2cccc(NC(=O)c3ccccc3SSc3ccccc3C(=O)Nc3cccc(S(=O)(=O)c4cccc(N)c4)c3)c2)c1 [Compound 35] |  |  | IC50 [1, 8]: 81.5 µM; zinc finger reactivity / zinc ejection rate [3]: 0.92 RFU/min |
| NS(=O)(=O)c1ccc(Cn2sc3ccccc3c2=O)cc1 [Compound 23 BITA] |  |  | IC50 ([1]; read-out: toxicity / IC50): 53.7 µM; EC50 ([2]; Table 2): 13.8 µM; loss of antiviral activity of BITA vs disulfide form, fold decrease [2]: 42 fold |
| NS(=O)(=O)c1ccc(CCNC(=O)c2ccccc2SSc2ccccc2C(=O)NCCc2ccc(S(N)(=O)=O)cc2)cc1 [Compound 24 D, N,N′-(2,2′-dithiodibenzoyl)-bis-4-(2-aminoethyl)benzene-sulfonamide] |  |  | IC50 [1, 7]: 52.8 µM; EC50 ([2]; Table 2): 0.41 µM |
| COc1ccnc(NS(=O)(=O)c2ccc(-n3sc4ccccc4c3=O)cc2)n1 [Compound 7 BITA] | 8.8 µM | 57.4 µM |  |
| NC(N)=NS(=O)(=O)c1ccc(NC(=O)c2ccccc2SSc2ccccc2C(=O)Nc2ccc(S(=O)(=O)N=C(N)N)cc2)cc1 [Compound 21 D] | 111 µM | > 316 µM |  |
| Cc1noc(NS(=O)(=O)c2ccc(NC(=O)c3ccccc3SSc3ccccc3C(=O)Nc3ccc(S(=O)(=O)Nc4onc(C)c4C)cc3)cc2)c1C [Compound 20 D] | 2.5 µM | 44.2 µM |  |
| CC(=O)Nc1cccc(S(=O)(=O)c2cccc(NC(=O)c3ccccc3SSc3ccccc3C(=O)Nc3cccc(S(=O)(=O)c4cccc(NC(C)=O)c4)c3)c2)c1 [Compound 36] |  |  | IC50 [1, 8]: 5.9 µM; zinc finger reactivity / zinc ejection rate [3]: 2 RFU/min |
| COc1ccnc(NS(=O)(=O)c2ccc(NC(=O)c3ccccc3SSc3ccccc3C(=O)Nc3ccc(S(=O)(=O)Nc4nccc(OC)n4)cc3)cc2)n1 [Compound 7 D] | 4.2 µM | 56.7 µM |  |
